Experiments:
CAL120 = assay: GRmax, 72 h; higher = less effect;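 further: breast cell lines in 384-well plates, nine doses across a 10^4 range, Dye Drop imaging of viable cells vs DMSO and time-zero plates, GR 0 means no net growth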
CAMA1 = assay: GRmax, 72 h; higher = less effect;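 further: breast cell lines in 384-well plates, nine doses across a 10^4 range, Dye Drop imaging of viable cells vs DMSO and time-zero plates, GR 0 means no net growth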
HCC1187 = assay: GRmax, 72 h; higher = less effect;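 further: breast cell lines in 384-well plates, nine doses across a 10^4 range, Dye Drop imaging of viable cells vs DMSO and time-zero plates, GR 0 means no net growth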
HCC202 = assay: GRmax, 72 h; higher = less effect;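 further: breast cell lines in 384-well plates, nine doses across a 10^4 range, Dye Drop imaging of viable cells vs DMSO and time-zero plates, GR 0 means no net growth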
MCF10A = assay: GRmax, 72 h; higher = less effect
SKBR3 = assay: GRmax, 72 h; higher = less effect
SUM1315 = assay: GRmax, 72 h; higher = less effect
SUM185PE = assay: GRmax, 72 h; higher = less effect
SUM190PT = assay: GRmax, 72 h; higher = less effect
SUM52PE = assay: GRmax, 72 h; higher = less effect
HCC1569 = assay: area over the GR curve, 72 h; higher = more effect;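 further: Dye Drop or Deep Dye Drop imaging of viable cells in 384-well plates (Hoechst nuclei, LIVE/DEAD dye), nine half-log doses, GR normalized to DMSO controls and time-zero plates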
HCC1954 = assay: area over the GR curve, 72 h; higher = more effect;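 further: Dye Drop or Deep Dye Drop imaging of viable cells in 384-well plates (Hoechst nuclei, LIVE/DEAD dye), nine half-log doses, GR normalized to DMSO controls and time-zero plates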
SUM44PE = assay: area over the GR curve, 72 h; higher = more effect;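 further: Dye Drop or Deep Dye Drop imaging of viable cells in 384-well plates (Hoechst nuclei, LIVE/DEAD dye), nine half-log doses, GR normalized to DMSO controls and time-zero plates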

SMILES | GRmax, 72 h (CAL120) [GR] | GRmax, 72 h (CAMA1) [GR] | GRmax, 72 h (HCC1187) [GR] | GRmax, 72 h (HCC202) [GR] | GRmax, 72 h (MCF10A) [GR] | GRmax, 72 h (SKBR3) [GR] | GRmax, 72 h (SUM1315) [GR] | GRmax, 72 h (SUM185PE) [GR] | GRmax, 72 h (SUM190PT) [GR] | GRmax, 72 h (SUM52PE) [GR] | area over the GR curve (HCC1569) [GR] | area over the GR curve (HCC1954) [GR] | area over the GR curve (SUM44PE) [GR]
Nc1cc(C(F)(F)F)c(-c2cc(N3CCOCC3)nc(N3CCOCC3)n2)cn1 [Buparlisib/NVP-BKM120] (max 10 µM) | -0.272 | -0.422 | -0.608 | -0.0463 | -0.16 | -0.373 | -0.369 | 0.0382 | -0.342 | -0.183 | 0.298 | 0.39 | 0.436
COc1cc2nccc(Oc3ccc(NC(=O)C4(C(=O)Nc5ccc(F)cc5)CC4)cc3)c2cc1OC [Cabozantinib] (max 10 µM) | 0.257 | 0.244 | 0.222 | 0.731 | 0.843 | 0.442 | 0.11 | 0.0169 | -0.0122 | 0.0751 | 0.0157 | -0.0867 | 0.0196
COc1cc2c(Oc3ccc4[nH]c(C)cc4c3F)ncnc2cc1OCCCN1CCCC1 [Cediranib/AZD2171] (max 10 µM) | -0.124 | -0.292 | 0.349 | 0.364 | 0.478 | -0.54 | -0.228 | 0.0765 | 0.893 | 0.21 | -0.0292 | 0.0591 | -0.0271
Cc1cc(Nc2ncc(Cl)c(Nc3ccccc3S(=O)(=O)C(C)C)n2)c(OC(C)C)cc1C1CCNCC1 [Ceritinib/LDK378] (max 10 µM) | -0.432 | -0.699 | 0.121 | -0.803 | -0.319 | -0.825 | -0.765 | 0.412 | -0.375 | 0.559 | 0.124 | 0.124 | 0.131
Cc1nc(Nc2ncc(C(=O)Nc3c(C)cccc3Cl)s2)cc(N2CCN(CCO)CC2)n1 [Dasatinib] (max 10 µM) | 0.176 | 0.679 | 0.069 | -0.197 | -0.0146 | 0.081 | -0.237 | 0.388 | 0.423 | -0.322 | 0.483 | 0.189 | 0.128
COc1cccc2c1C(=O)c1c(O)c3c(c(O)c1C2=O)C[C@@](O)(C(=O)CO)C[C@@H]3O[C@H]1C[C@H](N)[C@H](O)[C@H](C)O1 [Doxorubicin] (max 3.162 µM) | -0.247 | -0.652 | -0.83 | 0.245 | -0.324 | -0.616 | -0.0635 | 0.744 | -0.123 | -0.0432 | 0.492 | 0.73 | 0.629
CO[C@H]1C[C@@H]2CC[C@@H](C)[C@@](O)(O2)C(=O)C(=O)N2CCCC[C@H]2C(=O)O[C@H]([C@H](C)C[C@@H]2CC[C@@H](OCCO)[C@H](OC)C2)CC(=O)[C@H](C)/C=C(\C)[C@@H](O)[C@@H](OC)C(=O)[C@H](C)C[C@H](C)/C=C/C=C/C=C/1C [Everolimus] (max 10 µM) | 0.527 | 0.164 | 0.568 | 0.474 | 0.789 | 0.118 | 0.402 | 0.78 | 0.354 | 0.553 | 0.349 | 0.653 | 0.734
CCC(=O)Nc1ccc(C(=O)Nc2ccc(Nc3ncc4c(n3)N(C)c3ccc(C)cc3C(=O)N4C)cc2)cc1 [FMF-03-145-1] | 0.191 | 0.0253 | -0.506 | 0.23 | -0.0249 | -0.0145 | -0.274 | 0.205 | 0.0989 | 0.0118 | 1 | 1.15 | 1.15
COc1cc(N2CCN(C)CC2)ccc1Nc1ncc2c(n1)N(C)c1ccccc1C(=O)N2CC(F)(F)F [FMF-03-146-1] | 0.968 | 0.82 | 0.955 | 0.892 | 0.99 | 0.676 | 0.824 | 0.833 | 0.886 | 1.04 | -0.0612 | 0.0296 | 0.016
CN1CC[C@H](c2c(O)cc(O)c3c(=O)cc(-c4ccccc4Cl)oc23)[C@H](O)C1 [Flavopiridol] (max 1 µM) | -0.0459 | -0.13 | -0.885 | 0.027 | -0.67 | -0.656 | -0.887 | 0.155 | -0.324 | -0.193 | 0.232 | 0.313 | 0.406
CC(C)n1nc(-c2ccc3oc(N)nc3c2)c2c(N)ncnc21 [INK128/MLN0128] (max 3.162 µM) | -0.0097 | -0.0962 | 0.0961 | -0.01 | 0.172 | -0.506 | 0.0256 | 0.139 | -0.425 | -0.161 | 0.508 | 0.565 | 0.781
CC(C)NC[C@@H](C(=O)N1CCN(c2ncnc3c2[C@H](C)C[C@H]3O)CC1)c1ccc(Cl)cc1 [Ipatasertib/GDC0068] (max 10 µM) | 0.599 | -0.236 | 0.409 | 0.306 | 0.647 | 0.356 | 0.607 | 0.455 | 0.525 | 0.271 | 0.227 | 0.214 | 0.412
CN(C)C(=O)c1cc2cnc(Nc3ccc(N4CCNCC4)cn3)nc2n1C1CCCC1 [LEE011/Ribociclib] (max 10 µM) | 0.632 | 0.122 | 0.56 | 0.778 | 0.434 | 0.476 | 0.444 | 0.824 | 0.199 | 0.528 | -0.108 | 0.309 | 0.357
CCNC(=O)c1noc(-c2cc(C(C)C)c(O)cc2O)c1-c1ccc(CN2CCOCC2)cc1 [Luminespib/NVP-AUY922] (max 1 µM) | -0.115 | -0.0698 | -0.476 | 0.115 | -0.172 | -0.0766 | -0.081 | -0.103 | -0.433 | -0.0956 | 0.513 | 0.601 | 0.804
CCOc1cc2ncc(C#N)c(Nc3ccc(OCc4ccccn4)c(Cl)c3)c2cc1NC(=O)/C=C/CN(C)C [Neratinib/HKI272] (max 3.162 µM) | -0.261 | 0.449 | 0.421 | 0.0762 | 0.0959 | -0.253 | 0.114 | 0.25 | 0.42 | 0.491 | 0.397 | 0.429 | 0.568
